What was measured:
hepatocellular carcinoma [1] = type: in vivo, human
Experimental: FIGS. 1-4 show computerized abdominal tomography of a patient, before and after, treatment with thalidomide. […] The serum level of alpha-fetoprotein in the patient is 4335 μg/ml. […] The massive type index lesion at the left hepatic lobe shown in FIG. 3 has been reduced to the size of 3 cm×3 cm. The serum level of alpha-fetoprotein in the patient is 1501 μg/ml. In addition, the scan show the occurrence of ascitic fluid.
A patient weighted 55 kg with medical history of hepatitis C was diagnosed with hepatocellular carcinoma in December 1998 and treated with transcatheter arterial chemoembolization. They were treated with transcatheter arterial chemoembolization again in March and June 1999. According to the computerized abdominal tomography and gastrointestinal track barium enema, hepatocellular carcinoma invasion of the right colon and duodenum was doubted. The patient was treated with radiation on the right liver lobe during July to September 1999. After one-month of treatment, the serum level of alpha-fetoprotein in the patient increased from 105 μg/ml, before treatment, to 535 μg/ml. […] The patient was treated with a forth transcatheter arterial chemoembolization. The serum level of alpha-fetoprotein in the patient was increased to 1572 μg/ml.
The serum level of alpha-fetoprotein in the patient was up to 4335 μg/ml. The liver function exacerbated that the total bilirubin was […], GOT/GPT was 253/115 IU and alkaline phosphase (ALP) was 239 unit/l. […] A capsule containing 100 mg of thalidomide was orally administered to the patient twice daily during the thalidomide treatment. […] However, ascitic fluid was found. The abdominal paracentesis evidenced that ascitic fluid was caused by spontaneous bacterial peritonitis. […] The patient was then administered with antibiotics for the treatment of spontaneous bacterial peritonitis. The patient was still treated with thalidomide to the present.

hepatocellular carcinoma [2] = test: Thalidomide treatment of two patients with metastatic and locally advanced hepatocellular carcinoma (Example 3); type: in vivo, human; settings: thalidomide 100 mg twice daily
Experimental: Thalidomide was administered 100 mg twice daily. They were subjected to serum alpha-fetoprotein test every 2-4 weeks and computed tomography or magnetic resonance image examination every 4-8 weeks.

hepatocellular carcinoma [3] = test: Clinical observation of thalidomide in hepatocellular carcinoma, summary statement on side effects; type: in vivo, human; settings: patients with metastatic hepatocellular carcinoma or where local treatment has failed
Excerpt: The subject invention utilizes thalidomide to treat metastatic hepatocellular carcinoma and hepatocellular carcinoma, where local treatment has failed.
The therapeutic efficacy of the pharmaceutical composition of the subject invention comprising thalidomide on the treatment of hepatocellular carcinoma has been supported by clinical observation as illustrated in the following examples.

[4] = in water, methanol, ethanol or acetone; cited from earlier work
[5] = test system: tumor necrotic factor-alpha (TNF-I); settings: Journal of Infectious Diseases, 1993, 168, p. 408-414; cited from earlier work
[6] = test system: basic fibroblast growth factor-induced angiogenesis; settings: Anti-Cancer Drugs, 1996, 7, p.339-343; cited from earlier work
angiogenesis = settings: U.S. Pat. Nos. 5,593,990 and 5,629,327; cited from earlier work
[7] = women who took thalidomide in the first trimester of pregnancy; cited from earlier work
[8] = after treatment with thalidomide

alkaline phosphase (ALP) (hepatocellular carcinoma [1]; human, in vivo): 233 unit/l
Structure (SMILES): O=C1CCC(N2C(=O)c3ccccc3C2=O)C(=O)N1 (stereo not shown) [thalidomide, 2-(2,6-dioxo-3-piperidinyl)-1H-isoindolle-1,3(2H)-dione]
hepatocellular carcinoma of the two liver lobes on follow-up MRI (hepatocellular carcinoma [1]; after four weeks of treatment): significantly remitted
most diffused hepatocellular carcinoma infiltrating left and right hepatic lobes (computerized abdominal tomography) (hepatocellular carcinoma [1]; [8]): disappear
variation of the serum level of alpha-fetoprotein (FIG. 5) (hepatocellular carcinoma [1]; [8]): significantly decreased
right upper quadrant tenderness (hepatocellular carcinoma [1]; after two weeks of treatment, 100 mg orally twice daily): significantly relieved
serum level of alpha-fetoprotein (hepatocellular carcinoma [1]; one patient, 100 mg thalidomide capsule orally twice daily, after four weeks, 4335 μg/ml before treatment): 1501 µg/mL
serum alpha-fetoprotein level (FIGS. 6 and 7) (hepatocellular carcinoma [2]): significant reduced
side effects, such as arrest of bone marrow or hepatotoxicity (hepatocellular carcinoma [3]): without significant side effects
solubility [4]: sparingly soluble
inhibition of tumor necrotic factor-alpha (TNF-I) [5]: could effectively inhibit
inhibition of basic fibroblast growth factor-induced angiogenesis [6]: could effectively inhibit
inhibition of angiogenesis (angiogenesis): could effectively inhibit
teratogenic effect [7]: would deliver terata, such as phocomelia
